Source: patent US20090104297A1, “HERBAL COMPOSITION FOR TREATMENT OF INFECTIONS CAUSED BY DERMATOPHYTES” (Piramal Life Sciences Limited, priority 2006, published 2009)
Converted amounts (≈) assume the structure as drawn. Where two headings read alike, the source gives them in different places.

Columns and labels:
[1] = test system: Trichophyton mentagrophytes; experiment: In vitro susceptibility testing (MIC) by macro broth dilution method (CLSI M-38); assay type: cell-based; details: for MIC: Trichophyton mentagrophytes
Experimental: (§1) In vitro susceptibility testing (Minimum Inhibitory Concentration) by macro broth dilution method—(CLSI method-M-38) was carried out as described in literature.
(§2) Reference method for broth dilution antifungal susceptibility testing of yeasts-Approved standard. NCCLS document M27-A. National Committee for Clinical Laboratory Standards, Wayne, Pa.;
(§3) Reference method for broth dilution antifungal susceptibility testing of filamentous fungi-Approved standard. NCCLS document M38-A. National Committee for Clinical Laboratory Standards, Wayne, Pa.
(§4) Candida albicans, Trichophyton mentagrophytes and Micropsporum gypseum were used as test organisms.
(§5) RPMI 1640 (Sigma) with L-glutamine but without sodium bicarbonate and buffered at pH 7.0 with 3-(N-morpholino) propanesulfonic acid monosodium salt (MOPS), was the medium used for broth macro dilution susceptibility testing.
(§6) The extract of example 1, compound 1 and ketoconazole as standard.
(§7) The samples were prepared in methanol at 100 times the final concentration, followed by further dilutions (1:10) in RPMI 1640 medium to yield ten times the final strength required for the test. Purified component was also diluted in the same manner in methanol alone. Aliquots (0.1 ml) of each extract were dispensed into tubes. The final concentrations of extract ranged from 100-10 μg/ml.
(§8) The cultures were grown on PDA agar slants at 28° C. for 7 days. The growth was covered with sterile saline and scraped to get a growth suspension. The resulting mixture of conidia or sporangiospores and hypal fragments was transferred to a sterile test tube. The heavy particles were allowed to settle and upper homogenous suspension was transferred to another tube. These suspensions were adjusted to an optical density that ranged from 0.09 to 0.11 (80 to 82% transmittance). These stock suspensions were further diluted 1:100 with medium to obtain test inoculum (0.4×10^4 to 5×10^4 cfu/ml).
(§9) Finally the tubes were inoculated with 0.1 ml of sample dilutions and 0.9 ml of the above-prepared inoculum. […] Growth control tube received only diluent without sample. […]

[2] = test system: Micropsporum gypseum; experiment: as above; assay type: cell-based, Microsporum gypseum; details: for MIC: Nannizzia gypsea
Experimental: as §1, §2, §3, §4, §5, §6, §7, §8, §9

[3] = test system: Trichophyton mentagrophytes; experiment: Agar well diffusion method, zone of inhibition; assay type: cell-based; details: preparative HPLC fractions; concentration not given
Experimental: The given extracts were tested against a panel of microorganisms, including Candida albicans 10231, Microsporum gypseum and Trichophyton mentagrophytes.
The strains were cultured overnight at 30° C. in Sabouraud dextrose agar. Colonies from subcultures were suspended in saline and vortexed to give a transmittance of 75-80% at 530 nm (T530 nm≈10^8 cfu/ml). Predecided volume of inoculum was mixed with molten agar at 40° C. and poured into sterile petri plates. Plates were allowed to set and solidify. Then wells (6 mm in diameter) were cut from the agar and 0.05 ml of extract solution was delivered into them. After incubation for 48 hours, at 28° C., all plates were examined for any zones of growth inhibition, and the diameters of these zones were measured in millimeters.
The stock solutions of 10 mg/ml of extracts of example 1 was prepared by suspending extract in methanol and sonicating for 10 seconds. Further dilutions were made to get a concentration range of 5, 2 and 1 mg/ml.
Preparative TLC samples were analyzed for the activity by Agar well diffusion method as described in example 2.
All preparative HPLC fractions were analyzed for activity by Agar well diffusion method as described in example 2.

[4] = test system: Candida albicans; experiment: In vitro susceptibility testing (MIC) by macro broth dilution method (CLSI M-38); assay type: cell-based
Experimental: as §1, §2, §3, §4, §5, §6
as §7, with “μg/ml. […]” for “μg/ml.”

Row | MIC ([1]; macro broth dilution, RPMI 1640 pH 7.0, 28° C. for 48 hours, 100% growth inhibition, read-out: MIC values, Trichophyton mentagrophytes) | MIC ([2]; macro broth dilution, RPMI 1640 pH 7.0, 28° C. for 48 hours, 100% growth inhibition, read-out: MIC values, Microsporum gypseum) | MIC ([4]; macro broth dilution, RPMI 1640 pH 7.0, 37° C. for 24 hours, 100% growth inhibition, read-out: MIC values, Candida ablicans) | SMILES | MIC ([1]; 48 h, pH 7, read-out: MIC values, Trichophyton mentagrophytes) | MIC against dermatophytes versus ketoconazole (conclusion of Table 3), Trichophyton mentagrophytes ([1]; macro broth dilution) | MIC ([2]; 48 h, pH 7, read-out: MIC values, Microsporum gypseum) | MIC against dermatophytes versus ketoconazole (conclusion of Table 3), Microsporum gypseum ([2]; macro broth dilution) | zone of inhibition (tested against Trichophyton mentagrophytes culture) [3] | MIC ([4]; 24 h, pH 7, read-out: MIC values, Candida ablicans)
1 |  |  |  | COc1cc2[nH]c3ccccc3c2cc1C [Compound 1, 2-methoxy-3-methyl-9H-carbazole] | 6 mg/L (≈ 28.4 µM) | Conclusion: MIC of compound 1 against dermatophytes is comparable with ketoconazole. | 4 mg/L (≈ 18.9 µM) | Conclusion: MIC of compound 1 against dermatophytes is comparable with ketoconazole. | > 25 mm | 30 mg/L (≈ 142 µM)
2 | 4 mg/L (≈ 7.53 µM) | 4 mg/L (≈ 7.53 µM) | 5 mg/L (≈ 9.41 µM) | CC(=O)N1CCN(c2ccc(OCC3COC(Cn4ccnc4)(c4ccc(Cl)cc4Cl)O3)cc2)CC1 (stereo not drawn) [Ketoconazole, ketoconazole, reference compound] |  |  |  |  |  | 
